In patent publication US3950351A, “New derivatives of 2-benzamido-5-nitro thiazoles” (S.P.R.L. Phavic, priority 1973, dated 1976):

What was measured:
Syphacia obvelata = assay: Test for anthelminthics, nematodes (R. CAVIER); format: in vivo; parameters: Syphacia: (4) percentage of activity: concentration or dose not given beside the values; conditions: Table II; 10 subjects
From the text: (§1) Biological tests have been performed with a great number of compounds of formula I, using the following techniques: 1)- Test for amoebicidal activity described by R. CAVIER, Ann. pharm. franc. 1960, 18, pages 583-589 and by R. CAVIER and J. CENAC, Bull. Soc. Path. exot. 1972, 65, pages 399-404. 2) - Test for trichomonacidal activity described by R. Cavier and P. BUOT, Ann. Pharm. franc., 1964, 22, pages 211-216 and by R. CAVIER and J. CENAC, Semaine des Hopitaux, 1972, 48, pages 391-394. 3)- Tests for anthelminthics described for nematodes (such as Syphacia obvelata) by R. CAVIER, Bull. Soc. Path. exot. 1962, 55, pages 412-417, and for cestodes (such as Hymenolepis nana), by R. CAVIER, Ann. pharm. franc. 1956, 14, pages 545-552 and by R. CAVIER and M. J. NOTTEGHEM, Ann. Pharm. franc., 1968, 28, pages 603-606.

Hymenolepis nana [1] = assay: Test for anthelminthics, cestodes (R. CAVIER; R. CAVIER and M. J. NOTTEGHEM); format: in vivo; parameters: Hymenolepis nana: (4) percentage of activity: concentration or dose not given beside the values; conditions: Table II; 10 subjects
From the text: as §1

Biomphalaria glabrata = assay: Molluscicidal activity test; format: in vivo; conditions: 24 h exposure at 26°C, observed again after 24 h, 10, 1 and 0.1 ppm tested, read-out: dose at which active against Biomphalaria glabrata
Procedure: For determining the molluscicidal activity, the following test is used:
Two to four weeks old molluscs are used. Five molluscs having the same size are put in the same container and covered with a testing solution at a temperature of 26°C during 24 hours. After rinsing, the animals are again observed after 24 hours. The total duration of this test therefore is 48 hours.
Testing solutions containing respectively 10, 1 and 0.1 parts per million of the compounds to be tested in water having a hardness of 10° (hydrotimetric) are used.
The sensitivity of the mollusc strain is standardized with known reference molluscicides such as Niclosamide (Registered Trademark).

Hymenolepis nana [2] = assay: Tests on Hymenolepis nana in mice, anthelminthic activity, single dose (technique of R. CAVIER); format: in vivo; parameters: Mortality: unit not given here
From the text: Tests on Hymenolepis nana in mice have also been performed in order to determine the anthelminthic activity of various cmpounds of formula I, according to the technique of R. CAVIER. […] Four hours later, the animals have been purged by means of sodium sulfate.

Acute toxicity in mice = conditions: mouse, in vivo
From the text: Toxicity investigations have shown that the compounds of formula I have a very low acute toxicity both on oral administration and on intraperitoneal administration to mice.

Row | Structure (SMILES) | Syphacia: (2) number of dead subjects (Syphacia obvelata) | Syphacia: (3) number of subjects from which the parasite has been eradicated (Syphacia obvelata) | Syphacia: (4) percentage of activity (Syphacia obvelata) [%] | Hymenolepis nana: (2) number of dead subjects (Hymenolepis nana [1]) | Hymenolepis nana: (3) number of subjects from which the parasite has been eradicated (Hymenolepis nana [1]) | Hymenolepis nana: (4) percentage of activity (Hymenolepis nana [1]) [%] | minimal effective concentration (Biomphalaria glabrata) [µg/mL] | further results
1 | COc1cc(C(=O)Nc2ncc([N+](=O)[O-])s2)cc(OC)c1OC(C)=O [PH 6059] | 0 | 2 | 20 | 0 | 1 | 10 | 10 | –
2 | CC(=O)Oc1ccc(OC(C)=O)c(C(=O)Nc2ncc([N+](=O)[O-])s2)c1 [PH 6056] | 0 | 1 | 10 | 0 | 6 | 60 | – | –
3 | CC(=O)Oc1ccc(C(=O)Nc2ncc([N+](=O)[O-])s2)cc1 [PH 6046] | 0 | 2 | 20 | 0 | 3 | 30 | – | –
4 | CC(=O)Oc1ccc(C(=O)Nc2ncc([N+](=O)[O-])s2)cc1OC(C)=O [PH 6162] | 0 | 2 | 20 | 0 | 1 | 10 | – | –
5 | CC(=O)Oc1cccc(C(=O)Nc2ncc([N+](=O)[O-])s2)c1OC(C)=O [PH 6239] | 0 | 1 | 10 | 0 | 2 | 20 | 10 | –
6 | CC(=O)Oc1cc(C(=O)Nc2ncc([N+](=O)[O-])s2)cc(OC(C)=O)c1OC(C)=O [PH 6177] | 0 | 0 | 0 | 0 | 0 | 0 | – | –
7 | CC(=O)Oc1ccc(C(=O)Nc2ncc([N+](=O)[O-])s2)c(OC(C)=O)c1 [PH 6058] | 0 | 2 | 20 | 0 | 2 | 20 | – | –
8 | CCC(=O)Oc1ccccc1C(=O)Nc1ncc([N+](=O)[O-])s1 [PH 6049] | 0 | 2 | 20 | 0 | 10 | 100 | 1 | Mice from which parasite has been eradicated, number (Hymenolepis nana [2]; 25 mg/kg): 8; Mice from which parasite has been eradicated, percentage (Hymenolepis nana [2]; 25 mg/kg): 40%; Mortality (Hymenolepis nana [2]; 25 mg/kg): 0; Mice from which parasite has been eradicated, number (Hymenolepis nana [2]; 50 mg/kg): 14; Mice from which parasite has been eradicated, percentage (Hymenolepis nana [2]; 50 mg/kg): 70%; Mortality (Hymenolepis nana [2]; 50 mg/kg): 0; Mice from which parasite has been eradicated, number (Hymenolepis nana [2]; 100 mg/kg): 18; Mice from which parasite has been eradicated, percentage (Hymenolepis nana [2]; 100 mg/kg): 90%; Mortality (Hymenolepis nana [2]; 100 mg/kg): 0; Mice from which parasite has been eradicated, number (Hymenolepis nana [2]; 200 mg/kg): 20; Mice from which parasite has been eradicated, percentage (Hymenolepis nana [2]; 200 mg/kg): 100%; Mortality (Hymenolepis nana [2]; 200 mg/kg): 0
9 | COc1cc(C(=O)Nc2ncc([N+](=O)[O-])s2)ccc1OC(C)=O [PH 6196] | 0 | 0 | 0 | 0 | 0 | 0 | – | –
10 | CC(=O)Oc1cccc(C(=O)Nc2ncc([N+](=O)[O-])s2)c1 [PH 6045] | 0 | 0 | 0 | 0 | 4 | 40 | 10 | –
11 | CC(=O)Oc1ccc(Br)cc1C(=O)Nc1ncc([N+](=O)[O-])s1 [PH 6103] | 0 | 2 | 20 | 0 | 4 | 40 | 1 | –
12 | CC(=O)Oc1ccccc1C(=O)Nc1ncc([N+](=O)[O-])s1 [PH 5776] | 0 | 6 | 60 | 0 | 10 | 100 | 1 | Mice from which parasite has been eradicated, number (Hymenolepis nana [2]; 25 mg/kg): 20; Mice from which parasite has been eradicated, percentage (Hymenolepis nana [2]; 25 mg/kg): 100%; Mortality (Hymenolepis nana [2]; 25 mg/kg): 0; Mice from which parasite has been eradicated, number (Hymenolepis nana [2]; 50 mg/kg): 30; Mice from which parasite has been eradicated, percentage (Hymenolepis nana [2]; 50 mg/kg): 100%; Mortality (Hymenolepis nana [2]; 50 mg/kg): 0; Mice from which parasite has been eradicated, number (Hymenolepis nana [2]; 100 mg/kg): 10; Mice from which parasite has been eradicated, percentage (Hymenolepis nana [2]; 100 mg/kg): 100%; Mortality (Hymenolepis nana [2]; 100 mg/kg): 0; Mice from which parasite has been eradicated, number (Hymenolepis nana [2]; 200 mg/kg): 10; Mice from which parasite has been eradicated, percentage (Hymenolepis nana [2]; 200 mg/kg): 100%; Mortality (Hymenolepis nana [2]; 200 mg/kg): 0; LD50 (Acute toxicity in mice; ip, intraperitoneal administration): > 95 mg/kg; LD50 (Acute toxicity in mice; oral administration): > 4000 mg/kg
13 | CC(=O)Oc1cc(OC(C)=O)cc(C(=O)Nc2ncc([N+](=O)[O-])s2)c1 [PH 6161] | 0 | 7 | 70 | 0 | 0 | 0 | – | –
14 | CC(=O)Oc1ccc(Cl)cc1C(=O)Nc1ncc([N+](=O)[O-])s1 [PH 6057] | 0 | 2 | 20 | 0 | 7 | 70 | 1 | –
